Test results: ChEMBL document CHEMBL1201862, “PubChem BioAssay data set” (2004)
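Exposure lasted 48 hours, with cells grown in 96-well plates and compounds tested at five concentrations. At the GI50, growth is halved.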 Activity calls are given as the source filed them. Rule as the data show it: active = GI50 up to about 1.1 µM and inactive = higher.

How the values were obtained:
Assay in all cases: inhibition of tumour cell growth, NCI panel, 48 h
[1] = tested on: UO-31
[2] = tested on: RXF 393
[3] = tested on: UACC-62
[4] = tested on: SK-MEL-2
[5] = tested on: EKVX
[6] = tested on: SW-620
[7] = tested on: NCI-H226
[8] = tested on: M14
[9] = tested on: NCI-H23
[10] = tested on: COLO 205
[11] = tested on: UACC-257
[12] = tested on: K562
[13] = tested on: NCI/ADR-RES
[14] = tested on: Malme-3M
[15] = tested on: OVCAR-4
[16] = tested on: IGROV-1
[17] = tested on: MCF7
[18] = tested on: SF-539
[19] = tested on: HT-29
[20] = tested on: BT-549
[21] = tested on: LOX IMVI
[22] = tested on: OVCAR-5
[23] = tested on: HOP-92
[24] = tested on: SNB-19
[25] = tested on: 786-0
[26] = tested on: CAKI-1
[27] = tested on: MOLT-4
[28] = tested on: NCI-H460
[29] = tested on: HCC 2998
[30] = tested on: ACHN
[31] = tested on: A549
[32] = tested on: SNB-75
[33] = tested on: MDA-MB-231
[34] = tested on: RPMI-8226
[35] = tested on: SF-295
[36] = tested on: HCT-15
[37] = tested on: CCRF-CEM
[38] = tested on: T47D
[39] = tested on: NCI-H522
[40] = tested on: TK-10
[41] = tested on: Hs-578T
[42] = tested on: OVCAR-3
[43] = tested on: SK-OV-3
[44] = tested on: SK-MEL-28
[45] = tested on: KM12
[46] = tested on: SF-268
[47] = tested on: OVCAR-8
[48] = tested on: SK-MEL-5
[49] = tested on: MDA-MB-435
[50] = tested on: HOP-62
[51] = tested on: HCT-116
[52] = tested on: SN12C
[53] = tested on: DU-145
[54] = tested on: PC-3
[55] = tested on: A498
[56] = tested on: SR
[57] = tested on: HL-60
[58] = tested on: U-251
[59] = tested on: MDA-N
[60] = tested on: SNB-78
[61] = tested on: DMS-114
[62] = tested on: LXFL 529
[63] = tested on: DMS-273
[64] = tested on: KM-20L2

O=C(O)CP(=O)(O)O
GI50 [1]: > 100 µM (inactive)
GI50 [2]: > 100 µM (inactive)
GI50 [3]: > 100 µM (inactive)
GI50 [4]: > 100 µM (inactive)
GI50 [5]: > 100 µM (inactive)
GI50 [6]: > 100 µM (inactive)
GI50 [7]: > 100 µM (inactive)
GI50 [8]: > 100 µM (inactive)
GI50 [9]: > 100 µM (inactive)
GI50 [10]: > 100 µM (inactive)
GI50 [11]: > 100 µM (inactive)
GI50 [12]: > 100 µM (inactive)
GI50 [13]: > 100 µM (inactive)
GI50 [14]: > 100 µM (inactive)
GI50 [15]: > 100 µM (inactive)
GI50 [16]: > 100 µM (inactive)
GI50 [17]: > 100 µM (inactive)
GI50 [18]: > 100 µM (inactive)
GI50 [19]: > 100 µM (inactive)
GI50 [20]: > 100 µM (inactive)
GI50 [21]: > 100 µM (inactive)
GI50 [22]: > 100 µM (inactive)
GI50 [23]: > 100 µM (inactive)
GI50 [24]: > 100 µM (inactive)
GI50 [25]: > 100 µM (inactive)
GI50 [26]: > 100 µM (inactive)
GI50 [27]: > 100 µM (inactive)
GI50 [28]: > 100 µM (inactive)
GI50 [29]: > 100 µM (inactive)
GI50 [30]: > 100 µM (inactive)
GI50 [31]: > 100 µM (inactive)
GI50 [32]: > 100 µM (inactive)
GI50 [33]: > 100 µM (inactive)
GI50 [34]: > 100 µM (inactive)
GI50 [35]: > 100 µM (inactive)
GI50 [36]: > 100 µM
GI50 [37]: > 100 µM (inactive)
GI50 [38]: > 100 µM (inactive)
GI50 [39]: > 100 µM (inactive)
GI50 [40]: > 100 µM (inactive)
GI50 [41]: > 100 µM (inactive)
GI50 [42]: > 100 µM (inactive)
GI50 [43]: > 100 µM (inactive)
GI50 [44]: > 100 µM (inactive)
GI50 [45]: > 100 µM (inactive)
GI50 [46]: > 100 µM (inactive)
GI50 [47]: > 100 µM (inactive)
GI50 [48]: > 100 µM (inactive)
GI50 [49]: > 100 µM (inactive)
GI50 [50]: > 100 µM (inactive)
GI50 [51]: > 100 µM (inactive)
GI50 [52]: > 100 µM (inactive)
GI50 [53]: > 100 µM (inactive)
GI50 [54]: > 100 µM (inactive)
GI50 [55]: > 100 µM (inactive)
GI50 [56]: > 100 µM (inactive)
GI50 [57]: > 100 µM (inactive)
GI50 [58]: > 100 µM (inactive)
GI50 [59]: > 100 µM (inactive)

C=CC(C)(C)n1cc(C2=C(O)C(=O)C(c3cn(C(C)(C)C=C)c4ccccc34)=C(O)C2=O)c2ccccc21
GI50 [1]: 1.67 µM (inactive)
GI50 [2]: 0.435 µM (active)
GI50 [3]: 1.98 µM (inactive)
GI50 [4]: 1.73 µM (inactive)
GI50 [5]: 2.93 µM (inactive)
GI50 [6]: 10.3 µM (inactive)
GI50 [7]: 2.67 µM (inactive)
GI50 [8]: 2.71 µM (inactive)
GI50 [9]: 2.32 µM (inactive)
GI50 [10]: 9.14 µM (inactive)
GI50 [11]: 2.9 µM (inactive)
GI50 [12]: 5.62 µM (inactive)
GI50 [13]: 2.2 µM (inactive)
GI50 [14]: 2.54 µM (inactive)
GI50 [15]: 1.76 µM (inactive)
GI50 [16]: 2.7 µM (inactive)
GI50 [17]: 3.48 µM (inactive)
GI50 [18]: 1.59 µM (inactive)
GI50 [19]: 3.74 µM (inactive)
GI50 [20]: 1.01 µM (active)
GI50 [21]: 3.13 µM (inactive)
GI50 [22]: 1.89 µM (inactive)
GI50 [23]: 3.34 µM (inactive)
GI50 [24]: 2.41 µM (inactive)
GI50 [25]: 3.05 µM (inactive)
GI50 [26]: 2.34 µM (inactive)
GI50 [27]: 4.07 µM (inactive)
GI50 [28]: 2.84 µM (inactive)
GI50 [29]: 2.61 µM (inactive)
GI50 [30]: 3.69 µM (inactive)
GI50 [31]: 3.68 µM (inactive)
GI50 [32]: 2.36 µM (inactive)
GI50 [33]: 3.71 µM (inactive)
GI50 [34]: 4.44 µM (inactive)
GI50 [35]: 2.85 µM (inactive)
GI50 [36]: 1.75 µM
GI50 [37]: 5.25 µM (inactive)
GI50 [38]: 6.71 µM (inactive)
GI50 [39]: 2.53 µM (inactive)
GI50 [40]: 3.18 µM (inactive)
GI50 [41]: 2.07 µM (inactive)
GI50 [42]: 1.96 µM (inactive)
GI50 [43]: 2.67 µM (inactive)
GI50 [44]: 7.33 µM (inactive)
GI50 [45]: 3.37 µM (inactive)
GI50 [46]: 2.19 µM (inactive)
GI50 [47]: 2.11 µM (inactive)
GI50 [48]: 2.08 µM (inactive)
GI50 [49]: 3.79 µM (inactive)
GI50 [50]: 2.32 µM (inactive)
GI50 [51]: 3.27 µM (inactive)
GI50 [52]: 2.5 µM (inactive)
GI50 [53]: 4.9 µM (inactive)
GI50 [54]: 2.27 µM (inactive)
GI50 [55]: 5.97 µM (inactive)
GI50 [56]: 3.57 µM (inactive)
GI50 [57]: 5.09 µM (inactive)
GI50 [58]: 2.35 µM (inactive)
GI50 [59]: 1.95 µM (inactive)

c1ccc2nc(-c3ccc4c(c3)OCO4)ccc2c1
GI50 [1]: 20 µM (inactive)
GI50 [2]: 15.2 µM (inactive)
GI50 [4]: 41.3 µM (inactive)
GI50 [60]: 77.6 µM (inactive)
GI50 [5]: 24.9 µM (inactive)
GI50 [6]: 77.6 µM (inactive)
GI50 [7]: 21.6 µM (inactive)
GI50 [8]: 54.2 µM (inactive)
GI50 [9]: 47.1 µM (inactive)
GI50 [10]: 74.6 µM (inactive)
GI50 [11]: 15.6 µM (inactive)
GI50 [14]: 18 µM (inactive)
GI50 [15]: 24.8 µM (inactive)
GI50 [18]: 56.9 µM (inactive)
GI50 [61]: 23.4 µM (inactive)
GI50 [19]: 24.7 µM (inactive)
GI50 [21]: 26.1 µM (inactive)
GI50 [62]: 22.5 µM (inactive)
GI50 [22]: 48.5 µM (inactive)
GI50 [23]: 2.8 µM (inactive)
GI50 [24]: 73.5 µM (inactive)
GI50 [25]: 76.7 µM (inactive)
GI50 [26]: 28.8 µM (inactive)
GI50 [28]: 34.5 µM (inactive)
GI50 [29]: 38.3 µM (inactive)
GI50 [30]: 26.5 µM (inactive)
GI50 [31]: 49.2 µM (inactive)
GI50 [32]: 22.5 µM (inactive)
GI50 [35]: 46.7 µM (inactive)
GI50 [39]: 31.8 µM (inactive)
GI50 [40]: 64 µM (inactive)
GI50 [42]: 26.4 µM (inactive)
GI50 [44]: > 100 µM (inactive)
GI50 [45]: 24.7 µM (inactive)
GI50 [46]: 37.7 µM (inactive)
GI50 [47]: 43.5 µM (inactive)
GI50 [63]: 26.2 µM (inactive)
GI50 [50]: 22 µM (inactive)
GI50 [52]: 43.2 µM (inactive)
GI50 [56]: 16.7 µM (inactive)
GI50 [64]: 39.6 µM (inactive)
GI50 [57]: 29.1 µM (inactive)
GI50 [58]: 53.6 µM (inactive)
